Measured values: patent US11690895B2, “Compositions and methods of interferon alpha binding proteins” (priority 2017, dated 2023)

Key:
Arf1 = Arf1 expression in rat neuronal cultures (proteomics, Western blot); format: cell-based; settings: IFNα 300 IU/ml
Procedure: (§1) Rat neurons were either obtained from Brain Bits (Cat #SDECX; embryonic day 18) and cultured in NBACTIV1 media (Cat #nbactivl) until day 14, when they are relatively “mature”, or cortical neurons were prepared from embryonic day 18 Sprague Dawley fetuses. Two different densities of neurons were utilized, based on test procedures. For PSD-95 puncta, low density cultures (10,000 neurons/cm') were placed on 12 mm poly D Lysine (Sigma cat #2636) coated coverslips, incubated in wells with glia (astrocytes) or removed for IFNα (300 IU/ml) exposure. High density cultures (500,000 neurons/60 mm dish) were used for protein extraction. These cultures contained approximately 2-3% glia (GFAP immunostaining).
Protein samples (5 to 10 micrograms) were resolved in Criterion precast gels (Bio-Rad) and transferred to a PVDF membrane using a semidry system (Bio-Rad). All blocking antibody and washing steps were performed at room temperature (RT) on a rocker. Membranes were incubated for one hour in 3% non-fat dry milk in TBST (25 mM Tris, 140 mM NaCl, 3 mM KCl, and 0.05% Tween-20), then 4 hr in anti-Arfl antibody (cat #ARP75924_P050, Aviva; 1:1000) diluted in 1% non-fat dry milk in TBST. Membranes were briefly washed in TBST followed by 3 separate 5 minute incubations in TBST. Membranes were incubated for one hour with goat anti-rabbit IgG HRP (cat #NEF812001EA, Perkin Elmer 1:5,000) diluted in 1% non-fat dry milk in TBST. Final washing included a quick rinse with ddH2O, 2 min wash in TBST, 4 min wash in TBST, and 5 min wash in 1× TBS. Immunoreactive bands were detected with chemiluminescence using ECL Prime substrate (cat #RPN2236, GE Healthcare Life Sciences) on a Chemidoc imager (Bio-Rad), and quantified with ImageJ (NIH). Arf1 signal was normalized to GAPDH Western blot (WB) intensity (cat #MAB374, Millipore;1:20,000).
For proteomic analysis of total protein, rat cortical neurons were cultured in 60 mm dishes in high density (described above). After 14 days, cells were treated with 300 IU/mL IFNα for 20 min, 2 hr, 8 hr, 24 hr, or 48 hr. For comparison of the proteome, untreated cells were given sterile, distilled water (vehicle) equal to the volume of IFNα. After incubations, cells were washed once in RT phosphate buffered saline (PBS) and scraped into 500 microliters of PBS. Cell slurries were snap frozen in a dry ice ethanol bath and processed by the Emory University Proteomics Core.
To select proteins for further analysis, GO-Elite software was used. […] These lists of accession numbers were derived by identifying proteins for which the total peptide spectral match (PSM) was seven-fold (or more) lower in the IFNα treated sample than in the control sample. […] Thus, Arfl was selected for WB analysis.

AMPA receptor (AMPAR) = test: AMPA receptor (GLuR2) immunofluorescent staining of rat neurons; format: cell-based; settings: IFNα exposure for 2 hours
Procedure: Rat neurons were fixed with 4% paraformaldehyde in PBS for 20 min at RT. They were incubated with anti-GLuR2 (EMD Millipore, Burlington Mass.; 1:100), a subunit of the AMPA receptor (AMPAR), for 1 hour at RTO in the dark. After washes, this was followed by incubation with DAPI […] (Images were subjected ImageJ software for densitometric analysis).

rat neurons = test: PSD-95 puncta on rat neurons exposed to IFNα; format: cell-based; settings: IFNα 300 IU/mL, compared to control neurons
Procedure: as §1
Rat neurons were seeded on poly-L-lysine coated coverslips and co-cultured with astroglia. On day 14, half of the conditioned medium from co-culture was transferred to new 6 well plates. […] PSD-95 puncta were identified and counted with SYNPANAL software. […] PSD-95 puncta along the region were counted and divided by the length to obtain PSD-95 puncta/unit. […] For each treatment, the average puncta/unit was determined by averaging the puncta/unit for each neuron (at least 10/treatment in each replicate plate). For each treatment within the experiment, the average puncta/unit is determined by averaging the puncta/unit for each replicate of that treatment (thus, n=3/treatment) for 20 min and 2 hours. […]

rat neuronal cultures = settings: mediated through IFNAR and NMDAR, earlier studies; cited from earlier work

Substance: IFNα
- Arf1 level (Western blot) (Arf1; 2 hours): decreases
- Arf1 level (Western blot) (Arf1; 4 hours): decreases
- Arf1 level (Western blot) (Arf1; 8 hours (data not shown)): decreased
- Arf1 level (Western blot) (Arf1; 24 hours (data not shown)): not consistently
- neuronal surface expression of AMPARs (AMPA receptor (AMPAR)): significantly decreased
- PSD-95 puncta (rat neurons; 20 minutes): significantly decreased
- PSD-95 puncta (rat neurons; 2 hours): significantly decreased
- effect on dendrites of rat neuronal cultures (rat neuronal cultures): dendritic simplification
